These are literature values, as cited in EP2959895A1, “Compositions comprising Phenylalanine and Leucine for use in the diagnosis and treatment of neurological disorders and symptoms thereof” (Rheinisch-Westfälische Technische Hochschule Aachen (RWTH), priority 2014, dated 2015).

The term Km denotes the substrate concentration at which the rate is half of its maximum.

The structures appear in SMILES notation.

For the data set, the target named is T1, L-1 transporter (Rattus norvegicus, UniProt Q63016).
T1 construct: blood brain barrier (BBB) transport for fourteen amino acids in anesthetized rats; host or cells: Blood-brain barrier of anesthetized rats, in vivo
T1 sequence (Q63016 whole entry): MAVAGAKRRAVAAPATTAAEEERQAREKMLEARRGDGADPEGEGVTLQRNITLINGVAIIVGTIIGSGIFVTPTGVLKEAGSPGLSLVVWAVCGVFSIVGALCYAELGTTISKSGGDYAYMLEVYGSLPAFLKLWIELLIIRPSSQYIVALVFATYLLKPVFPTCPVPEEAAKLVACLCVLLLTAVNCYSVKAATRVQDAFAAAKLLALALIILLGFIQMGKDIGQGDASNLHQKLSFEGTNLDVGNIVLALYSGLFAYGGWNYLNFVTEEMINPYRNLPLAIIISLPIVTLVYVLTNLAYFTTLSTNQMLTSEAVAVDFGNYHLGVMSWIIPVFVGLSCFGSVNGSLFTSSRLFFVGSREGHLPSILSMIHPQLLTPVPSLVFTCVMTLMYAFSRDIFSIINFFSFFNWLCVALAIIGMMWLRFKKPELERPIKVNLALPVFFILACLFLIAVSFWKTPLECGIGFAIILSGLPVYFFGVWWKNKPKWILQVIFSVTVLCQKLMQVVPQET
T1 sequence (Q794F9 whole entry partner): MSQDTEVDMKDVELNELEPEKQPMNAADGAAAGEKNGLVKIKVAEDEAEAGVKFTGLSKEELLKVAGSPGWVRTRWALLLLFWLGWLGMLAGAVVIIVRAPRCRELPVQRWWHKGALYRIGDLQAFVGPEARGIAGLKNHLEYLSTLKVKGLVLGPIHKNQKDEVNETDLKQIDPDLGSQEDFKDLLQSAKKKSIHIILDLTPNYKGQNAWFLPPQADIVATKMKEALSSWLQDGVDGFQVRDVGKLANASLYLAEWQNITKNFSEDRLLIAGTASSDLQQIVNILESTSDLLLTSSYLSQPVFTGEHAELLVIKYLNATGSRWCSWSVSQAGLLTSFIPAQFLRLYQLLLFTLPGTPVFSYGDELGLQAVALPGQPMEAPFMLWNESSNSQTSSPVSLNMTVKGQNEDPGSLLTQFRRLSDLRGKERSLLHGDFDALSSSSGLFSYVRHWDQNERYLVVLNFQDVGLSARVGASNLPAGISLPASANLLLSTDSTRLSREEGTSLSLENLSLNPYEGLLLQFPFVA
To be noted: blood brain barrier (BBB) transport, anesthetized rats; Pardridge and Oldendorf 1975.

Turning to `N[C@@H](Cc1ccccc1)C(=O)O` [phenylalanine], the Km was 120 µM.
For `CC(C)C[C@H](N)C(=O)O` [leucine], the Km was 150 µM.
